Laboratory results published in publication PMC6185959 (2018).
Values belong to the compound of their own block, whether it stands above or below them.

How the values were obtained:
[1] = tested on: Pu22 (MYC G4) (DNA, G4) TGAGGGTGGGGAGGGTGGGGAA; assay: WaterLOGSY NMR; conditions: 50 mM KCl, Tris-d11 pH 6.4, 20 °C, 5 µM oligo, 100 µM compound
[2] = tested on: BCl2 (DNA, G4) AGGGGCGGGCGCGGGAGGAAGGGGGCGGGA; assay: CD melting; conditions: 30 mM KCl; 10 mM Tris pH 6.3, 1% DMSO; 10 µM oligo, 40 µM compound
[3] = tested on: Alexafluor647-NRAS (RNA, G4) UGUGGGAGGGGCGGGUCUGGG; assay: fluorescence intensity titration; conditions: 50 mM KCl; 25 mM Tris pH 6.4, 2-3% DMSO, RT; 50 nM oligo; 2:1 model
[4] = tested on: MYC Pu22 G14T/G23T (NMR, 121) (DNA, G4) TGAGGGTGGGTAGGGTGGGTAA; assay: 1H NMR titration, imino shifts; conditions: 50 mM KCl; 25 mM Tris-d11 pH 6.4, 10% DMSO-d6, 25 °C; overall KD, non-cooperative fit
[5] = tested on: Pu22 (MYC G4) (DNA, G4) TGAGGGTGGGGAGGGTGGGGAA; assay: CD melting; conditions: 30 mM KCl; 10 mM Tris pH 6.3, 1% DMSO; 10 µM oligo, 40 µM compound; Table S2 prints 7.6 ± 0.5
[6] = tested on: 333 (DNA, G4) TGAGGGTTAGGGTAAGGGTTAGGGTAA; assay: CD melting; conditions: 30 mM KCl; 10 mM Tris pH 6.3, 1% DMSO; 10 µM oligo, 40 µM compound
[7] = tested on: 131 (DNA, G4) TGAGGGTGGGTAAGGGTGGGTAA; assay: CD melting; conditions: 30 mM KCl; 10 mM Tris pH 6.3, 1% DMSO; 10 µM oligo, 40 µM compound
[8] = tested on: dsDNA (DNA, duplex) CAATCGGATCGAATTCGATCCGATTG; assay: CD melting; conditions: 30 mM KCl; 10 mM Tris pH 6.3, 1% DMSO; 10 µM oligo, 40 µM compound
[9] = tested on: Pu27 (MYC G4) (DNA, G4) TGGGGAGGGTGGGGAGGGTGGGGAAGG; assay: CD melting; conditions: 30 mM KCl; 10 mM Tris pH 6.3, 1% DMSO; 10 µM oligo, 40 µM compound
[10] = tested on: 221 (DNA, G4) TGAGGGTAGGGTAGGGTGGGTAA; assay: CD melting; conditions: 30 mM KCl; 10 mM Tris pH 6.3, 1% DMSO; 10 µM oligo, 40 µM compound
[11] = tested on: MYB (DNA, G4) GGAGGAGGAGGTCACGGAGGAGGAGGAGAAGGAGGAGGAGGA; assay: CD melting; conditions: 30 mM KCl; 10 mM Tris pH 6.3, 1% DMSO; 10 µM oligo, 40 µM compound
[12] = tested on: no tail (DNA, G4) GGGTGGGGAGGGTGGG; assay: CD melting; conditions: 30 mM KCl; 10 mM Tris pH 6.3, 1% DMSO; 10 µM oligo, 40 µM compound
[13] = tested on: HIF1a (DNA, G4) GGGAGGGAGAGGGGGCGGG; assay: CD melting; conditions: 30 mM KCl; 10 mM Tris pH 6.3, 1% DMSO; 10 µM oligo, 40 µM compound
[14] = tested on: Alexafluor647-Telomeric DNA (DNA, G4) TTAGGGTTAGGGTTAGGGTTAGGGTTA; assay: fluorescence intensity titration; conditions: 50 mM KCl; 25 mM Tris pH 6.4, 2-3% DMSO, RT; 50 nM oligo; 2:1 model
[15] = tested on: Alexafluor647-VEGF (DNA, G4) CGGGGCGGGCCGGGGGCGGGGT; assay: fluorescence intensity titration; conditions: 50 mM KCl; 25 mM Tris pH 6.4, 2-3% DMSO, RT; 50 nM oligo; 2:1 model
[16] = tested on: 122 (DNA, G4) TGAGGGTGGGTAGGGTAGGGTAA; assay: CD melting; conditions: 30 mM KCl; 10 mM Tris pH 6.3, 1% DMSO; 10 µM oligo, 40 µM compound
[17] = tested on: 5'-biotin Pu27 (MYC G4) (DNA, G4) TGGGGAGGGTGGGGAGGGTGGGGAAGG; assay: SPR; conditions: 30 mM KCl; 10 mM Tris pH 6.4, 3% DMSO, 0.01% Tween-20; 1:1 Langmuir, highest affinity site
[18] = tested on: Alexa Fluor 647-Pu27 (MYC G4) (DNA, G4) TGGGGAGGGTGGGGAGGGTGGGGAAGG; assay: fluorescence intensity titration; conditions: 50 mM KCl, 25 mM Tris pH 6.4, 2-3% DMSO, RT, 50 nM oligo, 2:1 model
[19] = tested on: GAT Tail (A25T) (DNA, G4) TGAGGGTGGGGAGGGTGGGGAT; assay: CD melting; conditions: 30 mM KCl; 10 mM Tris pH 6.3, 1% DMSO; 10 µM oligo, 40 µM compound
[20] = tested on: Alexafluor647-BCL2 (DNA, G4) AGGGGCGGGCGCGGGAGGAAGGGGGCGGGA; assay: fluorescence intensity titration; conditions: 50 mM KCl; 25 mM Tris pH 6.4, 2-3% DMSO, RT; 50 nM oligo; 2:1 model
[21] = tested on: MYC Pu22 G14T/G23T (NMR, 121) (DNA, G4) TGAGGGTGGGTAGGGTGGGTAA; assay: solution NMR structure; conditions: 50 mM KCl; 25 mM Tris-d11 pH 6.4, 25 °C; twofold excess compound; 5' and 3' tetrads
[22] = tested on: Alexafluor647-KRAS (DNA, G4) AGGGCGGTGTGGGAAGAGGGAAGAGGGGGAGGCAG; assay: fluorescence intensity titration; conditions: 50 mM KCl; 25 mM Tris pH 6.4, 2-3% DMSO, RT; 50 nM oligo; 2:1 model

binding ([1]; internal non-binding control): no
Compound: CN[C@H](C(=O)O)C(C)C

ΔTm [2]: 4.2 ± 0.4 °C | binding [3]: weak | KD [4]: 0.0165 ± 0.0011 mM | ΔTm [5]: 7.4 ± 0.5 °C | ΔTm [6]: 0.0 ± 1.0 °C | ΔTm [7]: 4.6 ± 0.3 °C | ΔTm [8]: 0.6 ± 0.7 °C | ΔTm [9]: 7.5 ± 2.0 °C | ΔTm [10]: 4.0 ± 1.0 °C | ΔTm [11]: 1.5 ± 0.3 °C | ΔTm [12]: 4.3 ± 1.7 °C | ΔTm [13]: 0.2 ± 1.1 °C | KD [14]: 0.0403 ± 0.01 mM | KD [15]: 0.0183 ± 0.0034 mM | ΔTm [16]: 7.0 ± 0.3 °C | KD [17]: 1.4 ± 1.2 µM | KD ([18]; Table S1 prints 9.1 ± 1.1): 0.0094 ± 0.0011 mM | ΔTm [19]: 4.5 ± 0.8 °C | binding [1]: yes | KD [20]: 0.0173 ± 0.0044 mM | binding [21]: yes | KD [22]: 0.0442 ± 0.0038 mM
Compound: Cc1oc2ccc(O)c(CN3CCCCCC3)c2c1C(=O)Nc1ccc(C(F)(F)F)cc1

KD [18]: 0.0232 ± 0.0076 mM
Compound: Cc1ccc(NC(=O)c2c(C)oc3ccc(O)c(CN4CCCCCC4)c23)cc1
